Assay results reported in patent US20210170033A1, “NOVEL CONJUGATES OF A PHARMACEUTICAL AGENT AND A MOIETY CAPABLE OF BINDING TO A GLUCOSE SENSING PROTEIN” (SANOFI, priority 2017, published 2021).

Test system: A2780 cells
Assay: Deoxy-glucose uptake assay in A2780 cells (14C 2-deoxy-D-glucose transport)
Format: cell-based
Details: Homo sapiens, 20 min; inhibition of 14C 2-deoxy-D-glucose transport into A2780 cells; 20 min compound incubation; read-out: IC50
Protocol: 1. Deoxy-Glucose Uptake Assay in A2780 Cells:
For measurement of ^14C 2-deoxy-D-glucose transport into A2780 cells, cells were seeded in 96-well plates (Cytostar-T Plates Perkin Elmer, 70,000 cells/180 μl/well) in medium complete (RPMI1640+Glutamax (Life technologies #61870)) and grown for 48 hours. After 48 h, cells were washed once with 180 μL KRB (Krebs Ringer Bicarbonate) buffer, and stimulated in a dose dependent manner by adding 10 μL of test compound dilution 0-1.1 mM (11 times higher concentration than final) or 10 μL of 1.1 mM Cytochalasin B solution as negative control, to 90 μL KRB buffer and incubated for 20 minutes. After compound stimulation, the transport of ^14C 2-deoxy-D-glucose was started by adding of 50 μL 2-^14C[U] 2-deoxy-D-glucose solution (109.1 μM 2-deoxy-D-glucose cold and 33 μM 2-^14C[U] 2-deoxy-D-glucose 0.1 μCi/well) for 20 minutes. Transport was stopped by adding 50 μL/well 96 μM Cytochalasin B solution. Plates were measured in a 96-well Wallac Microbeta device. The cpm (counts per minute) values were used to determine the % inhibition values for the test compounds within each experiment. In a first step, the mean background value generated by Cytochalasin B (a potent glucose transporter inhibitor) treated cells, was subtracted from the mean values of the treated cells. All mean values were obtained from triplicates. For %-Inhibition results, the mean value of the untreated cells (just KRB) was set as 100%. All other mean values were calculated to this relation. IC50 were obtained by regression analysis of dose response curve with 7 or 14 concentrations, respectively, for each compound.

Row | IC50 [µM] | Compound
1 | 40.7 | CO[C@@H]1O[C@H](COC(=O)c2cc(OCc3ccccc3)ccc2C)[C@@H](O)[C@H](O)[C@H]1O [Example 34]
2 | 62.4 | CO[C@@H]1O[C@H](COC(=O)c2cc(C)c(OCc3ccccc3)c(C)c2)[C@@H](O)[C@H](O)[C@H]1O [Example 19]
3 | 5.9 | C#CCCCn1c(COc2c(Cl)cc(C(=O)N[C@H]3[C@@H](OC)O[C@H](CO)[C@@H](O)[C@@H]3O)c(C)c2Cl)cc2ccccc21 [Example 280]
4 | 84.6 | COC(=O)[C@H](CCCCNC(=O)CCCC(=O)NCc1cccc(COc2c(Cl)cc(C(=O)N[C@H]3[C@@H](OC)O[C@H](CO)[C@@H](O)[C@@H]3O)c(C)c2Cl)c1)NC(=O)OC(C)(C)C [Example 460]
5 | 19.8 | CO[C@H]1O[C@H](CO)[C@@H](O)[C@H](O)[C@H]1OC(=O)c1cc(Cl)c(OCCc2cccc(Cl)c2)c(Cl)c1C [Example 242]
6 | 20.1 | C#CCCC(=O)Nc1cccc(COc2c(Cl)cc(C(=O)O[C@@H]3C(O)[C@H](O)[C@@H](CO)O[C@@H]3OC)cc2OC)c1 (stereo partly shown) [Example 78]
7 | 30.6 | COc1c(C(=O)N[C@H]2[C@H](OC)O[C@H](CO)[C@@H](O)[C@@H]2O)cc(Cl)c(OCc2cccc(CNC(=O)OC(C)(C)C)c2)c1Cl [Example 447]
8 | 10 | CO[C@H]1O[C@H](CO)[C@@H](O)[C@H](O)[C@H]1OC(=O)c1cc(Cl)c(OCc2nccn2Cc2ccccc2)c(Cl)c1 [Example 117]
9 | 14.7 | COC(=O)/C=C/c1ccc(COc2c(Cl)cc(C(=O)O[C@H]3[C@@H](OC)O[C@H](CO)[C@@H](O)[C@@H]3O)c(C)c2Cl)cc1 [Example 317]
10 | 34.2 | COC(=O)[C@H](CCCCNC(=O)CCCC(=O)NCc1cccc(COc2cc(OC)c(C(=O)N[C@H]3[C@@H](OC)O[C@H](CO)[C@@H](O)[C@@H]3O)cc2Cl)c1)NC(=O)OC(C)(C)C [Example 436]
11 | 7.2 | COC(=O)c1cc(COc2c(Cl)cc(C(=O)N[C@H]3[C@@H](OC)O[C@H](CO)[C@@H](O)[C@@H]3O)c(C)c2Cl)ccc1Cl [Example 257]
12 | 25.1 | COC(=O)[C@H](CCCCNC(=O)CCCC(=O)Nc1cccc(COc2c(Cl)cc(C(=O)N[C@H]3[C@@H](OC)O[C@H](CO)[C@@H](O)[C@@H]3O)c(C)c2Cl)c1)NC(=O)OC(C)(C)C [Example 463]
13 | 1.1 | COc1ncc(COc2c(Cl)cc(C(=O)O[C@H]3[C@@H](OC)O[C@H](CO)[C@@H](O)[C@@H]3O)c(C)c2Cl)cc1Cl [Example 215]
14 | 27.8 | CCOC(=O)c1cccc(COc2c(Cl)cc(C(=O)N[C@H]3[C@@H](OC)O[C@H](CO)[C@@H](O)[C@@H]3O)c(C)c2Cl)n1 [Example 270]
15 | 60.5 | COc1cc(OCc2cccc(CNC(=O)CCCCCCCCC(=O)OC(C)(C)C)c2)c(Cl)cc1C(=O)N[C@H]1[C@@H](OC)O[C@H](CO)[C@@H](O)[C@@H]1O [Example 427]
16 | < 0.1 | COc1cc(OCc2ccc(-c3csnn3)cc2)c(Cl)cc1C(=O)O[C@H]1[C@@H](OC)O[C@H](CO)[C@@H](O)[C@@H]1O [Example 476]
17 | 45 | COc1cc(OCc2cccc(CNC(=O)CCCCCCC(=O)O)c2)c(Cl)cc1C(=O)O[C@H]1[C@@H](OC)O[C@H](CO)[C@@H](O)[C@@H]1O [Example 408]
18 | 7.6 | CO[C@H]1O[C@H](CO)[C@@H](O)[C@H](O)[C@H]1NC(=O)c1cc(Cl)c(OCc2ccc(C(=O)OC(C)(C)C)cc2)c(Cl)c1C [Example 296]
19 | 52.3 | CO[C@H]1O[C@H](CO)[C@@H](O)[C@H](O)[C@H]1OC(=O)c1cc(Cl)cc(OCc2ccccc2)c1 [Example 74]
20 | 18.5 | CO[C@H]1O[C@H](CO)[C@@H](O)[C@H](O)[C@H]1NC(=O)c1cc(Cl)c(OCc2cccc(CNC(=O)CCC(=O)OC(C)(C)C)c2)c(Cl)c1C [Example 449]
21 | 27.5 | C#CCCC(=O)Nc1cccc(COc2c(Cl)cc(C(=O)O[C@@H]3[C@@H](O)[C@@H](OC)O[C@H](CO)[C@H]3O)c(C)c2Cl)c1 [Example 205]
22 | 11.2 | COC(=O)[C@H](CCC(=O)NCc1cccc(COc2cc(OC)c(C(=O)O[C@H]3[C@@H](OC)O[C@H](CO)[C@@H](O)[C@@H]3O)cc2Cl)c1)NC(=O)OC(C)(C)C [Example 369]
23 | 67.3 | C=CCO[C@@H]1O[C@H](COC(=O)c2ccc(OCc3ccccc3)c(OC)c2)[C@@H](O)[C@H](O)[C@H]1O [Example 11]
24 | < 0.1 | COc1cc(OCc2coc(-c3ccc(Cl)cc3)n2)c(Cl)cc1C(=O)O[C@H]1[C@@H](OC)O[C@H](CO)[C@@H](O)[C@@H]1O [Example 474]
25 | 15.1 | COc1cc(OCc2nc3ccccc3n2CCCCCCCCCCCCCCCC(=O)O)c(Cl)cc1C(=O)N[C@H]1[C@@H](OC)O[C@H](CO)[C@@H](O)[C@@H]1O [Example 421]

Row | IC50 [µM] | Compound
26 | 25 | CO[C@H]1O[C@H](CO)[C@@H](O)[C@H](O)[C@H]1OC(=O)c1cc(Cl)c(OCc2cccc(CNC(=O)CCCCCCCCC(=O)OC(C)(C)C)c2)c(Cl)c1C [Example 456]
27 | 0.6 | COc1ncc(COc2c(Cl)cc(C(=O)N[C@H]3[C@@H](OC)O[C@H](CO)[C@@H](O)[C@@H]3O)c(C)c2Cl)cc1Cl [Example 210]
28 | 32.2 | CO[C@@H]1O[C@H](CO)[C@@H](O)[C@H](O)[C@H]1NC(=O)c1cc(Cl)c(OCc2ccccc2)c(Cl)c1 [Example 338]
29 | 6 | CO[C@H]1O[C@H](CO)[C@@H](O)[C@H](O)[C@H]1NC(=O)c1cc(Cl)c(OCc2ccc3c(cnn3C)c2)c(Cl)c1C [Example 240]
30 | 45.6 | CO[C@@H]1O[C@H](COC(=O)c2cc(OCc3ccccc3)c3cc[nH]c3c2)[C@@H](O)[C@H](O)[C@H]1O [Example 145]
31 | 4.6 | COc1cccc(COc2cc(OC)c(C(=O)O[C@H]3[C@@H](OC)O[C@H](CO)[C@@H](O)[C@@H]3O)cc2Cl)n1 [Example 480]
32 | 2.9 | COc1cc(OCc2cccc(NC(=O)CCCC(=O)OC(C)(C)C)c2)c(Cl)cc1C(=O)N[C@H]1[C@@H](OC)O[C@H](CO)[C@@H](O)[C@@H]1O [Example 429]
33 | 25.6 | CO[C@H]1O[C@H](CO)[C@@H](O)[C@H](O)[C@H]1NC(=O)c1cc(Cl)c(OCc2cccc(NC(=O)CCCCCCC(=O)OC(C)(C)C)c2)c(Cl)c1C [Example 454]
34 | 25.8 | CO[C@H]1O[C@H](CO)[C@@H](O)[C@H](O)[C@H]1NC(=O)c1cc(Cl)c(OCc2cccc(CNC(=O)CCCC(=O)OC(C)(C)C)c2)c(Cl)c1C [Example 450]
35 | 23.2 | CO[C@H]1O[C@H](CO)[C@@H](O)[C@H](O)[C@H]1OC(=O)c1cc(Cl)c(OCc2cccc(CNC(=O)[C@@H](N)CC(C)C)c2)c(Cl)c1C [Example 285]
36 | 1.8 | COc1cc(OCc2ccc(/C=C/C(=O)NCCCCCC(=O)OC(C)(C)C)cc2)c(Cl)cc1C(=O)N[C@H]1[C@@H](OC)O[C@H](CO)[C@@H](O)[C@@H]1O (relative stereo) [Example 392]
37 | 0.9 | COc1cc(OCc2cccc(CNC(=O)OC(C)(C)C)c2)c(Cl)cc1C(=O)N[C@H]1[C@@H](OC)O[C@H](CO)[C@@H](O)[C@@H]1O [Example 357]
38 | 75.2 | CO[C@H]1O[C@H](CO)[C@@H](O)[C@H](O)[C@H]1NC(=O)c1cc(Cl)c(OCc2ccc3c(c2)nnn3C)c(Cl)c1C [Example 260]
39 | 52.9 | COC(=O)[C@H](CCCCNC(=O)CNc1cc(COc2c(Cl)cc(C(=O)N[C@H]3[C@@H](OC)O[C@H](CO)[C@@H](O)[C@@H]3O)c(C)c2Cl)cnc1OC)NC(=O)OC(C)(C)C [Example 388]
40 | 3.7 | COc1cc(OCc2nnc(-c3ccc(Cl)cc3)s2)c(Cl)cc1C(=O)O[C@H]1[C@@H](OC)O[C@H](CO)[C@@H](O)[C@@H]1O [Example 477]
41 | 0.3 | CCOC(=O)c1nnsc1COc1c(Cl)cc(C(=O)O[C@H]2[C@@H](OC)O[C@H](CO)[C@@H](O)[C@@H]2O)c(C)c1Cl [Example 282]
42 | 45.8 | COC(=O)/C=C/c1ccc(COc2c(Cl)cc(C(=O)O[C@H]3[C@@H](OC)O[C@H](CO)[C@@H](O)[C@@H]3O)cc2OC)cc1 [Example 299]
43 | 76.4 | COc1cc(OCc2ccccc2)cc(C(=O)OC[C@H]2O[C@@H](OC)[C@H](O)[C@@H](O)[C@@H]2O)c1 [Example 136]
44 | 1.5 | CCn1c(COc2c(Cl)cc(C(=O)O[C@H]3[C@@H](OC)O[C@H](CO)[C@@H](O)[C@@H]3O)cc2OC)nc2ccc(Br)cc21 [Example 213]
45 | 6.9 | CO[C@H]1O[C@H](CO)[C@@H](O)[C@H](O)[C@H]1OC(=O)c1cc(Cl)c(OCc2ccccc2)cc1C [Example 300]
46 | 31.7 | COc1cc(OCc2cccc(CNC(=O)CCCCCCC(=O)NCCCCCC(=O)OC(C)(C)C)c2)c(Cl)cc1C(=O)N[C@H]1[C@@H](OC)O[C@H](CO)[C@@H](O)[C@@H]1O [Example 457]
47 | 3.4 | CO[C@H]1O[C@H](CO)[C@@H](O)[C@H](O)[C@H]1OC(=O)c1cc(Cl)c(OCc2cccc(CNC(=O)[C@H](CC(C)C)N(C)C(=O)OC(C)(C)C)c2)c(Cl)c1C [Example 279]
48 | 0.1 | CO[C@H]1O[C@H](CO)[C@@H](O)[C@H](O)[C@H]1NC(=O)c1cc(Cl)c(OCc2nc3ccccc3n2CCCCCC(=O)OC(C)(C)C)c(Cl)c1C [Example 301]
49 | 17.2 | COc1c(Cl)c(OCc2cccc(CNC(=O)OC(C)(C)C)c2)c(Cl)c(C)c1C(=O)N[C@H]1[C@@H](OC)O[C@H](CO)[C@@H](O)[C@@H]1O [Example 181]
